The values below come from US9278962B2 (Cytokinetics, Inc., priority 2011, dated 2016).

The test system of one experiment is rabbit skeletal myofibrils (approximately 90% fast fibers). Kind of experiment: Activation of fast skeletal myofibrils (PUMA coupled-enzyme ATPase assay, AC1.4). The class given is biochemical. The settings on record: Table 2; concentration at which the compound increased enzymatic activity by 40%; calcium at pCa25. How it is done: Rabbit skeletal myofibrils were prepared based upon the method of Herrmann et al. (Biochem. 32(28):7255-7263(1993). Myofibrils were prepared from rabbit psoas muscle purchased from Pel-Freez Biologicals (Arkansas) within 2 days of ordering, stored on ice. Minced muscle was homogenized in 10 volumes of ice-cold “standard” buffer (50 mM Tris, pH 7.4, 0.1 M potassium acetate, 5 mM KCl, 2 mM DTT, 0.2 mM PMSF, 10 μM leupeptin, 5 μM pepstatin, and 0.5 mM sodium azide) containing 5 mM EDTA and 0.5% Triton X-100 using an Omni-Macro homogenizer. Myofibrils were recovered by low speed centrifugation (3000 rpm for 10 minutes) and washed 2 times in the Triton X-100 containing buffer to ensure removal of cellular membrane. Following the Triton washes, myofibrils were washed 3 times in “standard” buffer containing 2 mM magnesium acetate. A final wash in assay buffer (12 mM PIPES, pH 6.8, 60 mM KCl, 1 mM DTT) was performed and brought to 10% sucrose for flash freezing in liquid nitrogen and storage at −80° C.
Fast fiber activators were identified by measuring the enzymatic activity of muscle myofibril preparations using the proprietary PUMA™ (see, e.g., U.S. Pat. Nos. 6,410,254, 6,743,599, 7,202,051, and 7,378,254) assay system. Myofibril preparations consisted of rabbit skeletal muscle (approximately 90% fast fibers) that had been mechanically homogenized and washed with a detergent (triton X-100) to remove cellular membranes. This preparation retained all of the sarcomeric components in a native conformation and the enzymatic activity was still regulated by calcium. Compounds were tested using a myofibril suspension and a level of calcium sufficient to increase enzymatic activity of the myofibrils to 25% of their maximal rate (termed pCa25). Enzymatic activity was tracked via a pyruvate kinase and lactate dehydrogenase-coupled enzyme system. This assay regenerates myosin-produced ADP into ATP by oxidizing NADH, producing an absorbance change at 340 nm. The buffering system was 12 mM Pipes, 2 mM MgCl2, 1 mM DTT at pH 6.8 (PM12 buffer).
Using procedures similar to those described herein, utilizing reagents and intermediates commercially available (e.g., Sigma-Aldrich) or readily synthesized by one of skill in the art, the compounds in Table 2, Table 3, Table 4 and Table 5 were synthesized, characterized and tested. AC1.4 values were determined according to the procedure described in Example 6, and the reported median AC1.4 values are as follows: A=<1 uM; B=1-10 uM; C=10-20 uM; D=>20 uM.
Take `CC(Nc1nc(-c2cccc(C(N)=O)c2)ns1)C(=O)c1ccc(F)cc1` (stereo not shown) [3-(5-{[2-(4-fluorophenyl)-1-methyl-2-oxoethyl]amino}-1,2,4-thiadiazol-3-yl)benzamide]: the “Mean AC1.4” value is on record as “C (C=10-20 uM)”.

Consider `NC(=O)c1cccc(-c2nsc(NCC(O)c3ccc(F)cc3)n2)c1` (stereo not shown) [3-(5-{[2-(4-fluorophenyl)-2-hydroxyethyl]amino}-1,2,4-thiadiazol-3-yl)benzamide], for which the “Mean AC1.4” value is on record as “D (D=>20 uM)”.

On to `CC(C)(CNc1nc(CCC(=O)N2CCCC(O)C2)ns1)c1ccc(F)cc1` (stereo not shown) [3-(5-{[2-(4-fluorophenyl)-2-methylpropyl]amino}(1,2,4-thiadiazol-3-yl))-1-(3-hydroxypiperidyl)propan-1-one], for which the “Mean AC1.4” value is “D (D=>20 uM)”.

With `CC(C)(CNc1nc(CCC(=O)N2CCC(O)CC2)ns1)c1ccc(F)cc1` [3-(5-{[2-(4-fluorophenyl)-2-methylpropyl]amino}(1,2,4-thiadiazol-3-yl))-1-(4-hydroxypiperidyl)propan-1-one], the “Mean AC1.4” value is reported as “D (D=>20 uM)”.

For the compound `CC(C)(CNc1nc(CCC(=O)N2CCCC2)ns1)c1ccc(F)cc1` [3-(5-{[2-(4-fluorophenyl)-2-methylpropyl]amino}(1,2,4-thiadiazol-3-yl))-1-pyrrolidinylpropan-1-one], the “Mean AC1.4” value is on record as “C (C=10-20 uM)”.

For `CC(C)(CNc1nc(CCC(=O)NCCO)ns1)c1ccc(F)cc1` [3-(5-{[2-(4-fluorophenyl)-2-methylpropyl]amino}(1,2,4-thiadiazol-3-yl))-N-(2-hydroxyethyl)propanamide], the “Mean AC1.4” value is listed as “C (C=10-20 uM)”.

`CC(C)(CNc1nc(-c2cccc(C(N)=O)c2)ns1)c1ccc(F)cc1` [3-(5-{[2-(4-fluorophenyl)-2-methylpropyl]amino}-1,2,4-thiadiazol-3-yl)benzamide]: the “Mean AC1.4” value is reported as “A (A=<1 uM)”.

For the compound `CC(C)(CNc1nc(-c2cccc(C#N)c2)ns1)c1ccc(F)cc1` [3-(5-{[2-(4-fluorophenyl)-2-methylpropyl]amino}-1,2,4-thiadiazol-3-yl)benzenecarbonitrile], the “Mean AC1.4” value is on record as “B (B=1-10 uM)”.

For `CC(C)(CNc1nc(-c2cccc(O)c2)ns1)c1ccc(F)cc1` [3-(5-{[2-(4-fluorophenyl)-2-methylpropyl]amino}-1,2,4-thiadiazol-3-yl)phenol], the “Mean AC1.4” value was “A (A=<1 uM)”.

`CC(C)(CNc1nc(CCC(N)=O)ns1)c1ccc(F)cc1` [3-(5-{[2-(4-fluorophenyl)-2-methylpropyl]amino}-1,2,4-thiadiazol-3-yl)propanamide]: the “Mean AC1.4” value is “C (C=10-20 uM)”.

As to `CC(C)(CNc1nc(CC(O)CO)ns1)c1ccc(F)cc1` (stereo not shown) [3-(5-{[2-(4-fluorophenyl)-2-methylpropyl]amino}-1,2,4-thiadiazol-3-yl)propane-1,2-diol], the “Mean AC1.4” value is reported as “B (B=1-10 uM)”.

With `CC(C)(CNc1nc(CCC(=O)O)ns1)c1ccc(F)cc1` [3-(5-{[2-(4-fluorophenyl)-2-methylpropyl]amino}-1,2,4-thiadiazol-3-yl)propanoic acid], the “Mean AC1.4” value is recorded as “D (D=>20 uM)”.

Consider `NC(=O)c1cccc(-c2nsc(NCCc3ccc(F)cc3)n2)c1` [3-(5-{[2-(4-fluorophenyl)ethyl]amino}-1,2,4-thiadiazol-3-yl)benzamide], for which the “Mean AC1.4” value is on record as “B (B=1-10 uM)”.

As for `N#Cc1cccc(-c2nsc(NCCc3ccc(F)cc3)n2)c1` [3-(5-{[2-(4-fluorophenyl)ethyl]amino}-1,2,4-thiadiazol-3-yl)benzenecarbonitrile], the “Mean AC1.4” value was “D (D=>20 uM)”.

Turning to `CN1CCN(C(=O)CNc2nc(-c3cccc(C(N)=O)c3)ns2)CC1` [3-(5-{[2-(4-methylpiperazinyl)-2-oxoethyl]amino}-1,2,4-thiadiazol-3-yl)benzamide], the “Mean AC1.4” value was “D (D=>20 uM)”.

Regarding `CC(C)(CNc1nc(-c2cccc(C(N)=O)c2)ns1)c1ccc(F)cn1` [3-(5-{[2-(5-fluoro(2-pyridyl))-2-methylpropyl]amino}-1,2,4-thiadiazol-3-yl)benzamide], the “Mean AC1.4” value is “B (B=1-10 uM)”.

Take `C[C@H](CNc1nc(-c2cccc(C(N)=O)c2)ns1)c1ccc(F)cc1` [3-(5-{[(2S)-2-(4-fluorophenyl)propyl]amino}-1,2,4-thiadiazol-3-yl)benzamide]: the “Mean AC1.4” value is listed as “A (A=<1 uM)”.

`CC(C)(CNc1nc(Cl)ns1)c1ccc(F)cc1` [3-Chloro-N-(2-(4-fluorophenyl)-2-methylpropyl)-1,2,4-thiadiazol-5-amine]: the “Mean AC1.4” value is given as “B (B=1-10 uM)”.

`CN(C)c1nc(-c2cccc(C(N)=O)c2)ns1` [3-[5-(dimethylamino)-1,2,4-thiadiazol-3-yl]benzamide]: the “Mean AC1.4” value was “D (D=>20 uM)”.

Consider `CC(=O)N1CCC(CNc2nc(-c3cccc(C(N)=O)c3)ns2)(c2ccc(F)cc2)CC1` [3-[5-({[1-acetyl-4-(4-fluorophenyl)-4-piperidyl]methyl}amino)-1,2,4-thiadiazol-3-yl]benzamide], for which the “Mean AC1.4” value is recorded as “D (D=>20 uM)”.

Regarding `CN1CCC(CNc2nc(-c3cccc(C(N)=O)c3)ns2)(c2ccc(F)cc2)CC1` [3-[5-({[4-(4-fluorophenyl)-1-methyl-4-piperidyl]methyl}amino)-1,2,4-thiadiazol-3-yl]benzamide], the “Mean AC1.4” value was “D (D=>20 uM)”.

Turning to `NC(=O)c1cccc(-c2nsc(NCC3(c4ccc(F)cc4)CCNCC3)n2)c1` [3-[5-({[4-(4-fluorophenyl)-4-piperidyl]methyl}amino)-1,2,4-thiadiazol-3-yl]benzamide], the “Mean AC1.4” value was “D (D=>20 uM)”.

For the compound `Oc1cccc(Cc2nsc(NCCc3cccc(Cl)c3)n2)c1` [3-[(5-{[2-(3-chlorophenyl)ethyl]amino}-1,2,4-thiadiazol-3-yl)methyl]phenol], the “Mean AC1.4” value is listed as “B (B=1-10 uM)”.

As for `CC(C)(CNc1nc(Cc2cccc(O)c2)ns1)c1ccc(Cl)cc1` [3-[(5-{[2-(4-chlorophenyl)-2-methylpropyl]amino}-1,2,4-thiadiazol-3-yl)methyl]phenol], the “Mean AC1.4” value is given as “A (A=<1 uM)”.

Regarding `Oc1cccc(Cc2nsc(NCCc3ccc(Cl)cc3)n2)c1` [3-[(5-{[2-(4-chlorophenyl)ethyl]amino}-1,2,4-thiadiazol-3-yl)methyl]phenol], the “Mean AC1.4” value is reported as “B (B=1-10 uM)”.

Take `CC(C)(CNc1nc(Cc2cccc(O)c2)ns1)c1ccc(F)cc1` [3-[(5-{[2-(4-fluorophenyl)-2-methylpropyl]amino}-1,2,4-thiadiazol-3-yl)methyl]phenol]: the “Mean AC1.4” value was “A (A=<1 uM)”.

On to `CN(CC(C)(C)c1ccc(F)cc1)c1nc(Cc2cccc(O)c2)ns1` [3-[(5-{[2-(4-fluorophenyl)-2-methylpropyl]methylamino}-1,2,4-thiadiazol-3-yl)methyl]phenol], for which the “Mean AC1.4” value was “D (D=>20 uM)”.

For the compound `Oc1ccc(CCNc2nc(Cc3cccc(O)c3)ns2)cc1` [3-[(5-{[2-(4-hydroxyphenyl)ethyl]amino}-1,2,4-thiadiazol-3-yl)methyl]phenol], the “Mean AC1.4” value was “D (D=>20 uM)”.

For the compound `C[C@@H](CNc1nc(Cc2cccc(O)c2)ns1)c1ccc(F)cc1` [3-[(5-{[(2R)-2-(4-fluorophenyl)propyl]amino}-1,2,4-thiadiazol-3-yl)methyl]phenol], the “Mean AC1.4” value was “A (A=<1 uM)”.

Regarding `C[C@H](CNc1nc(Cc2cccc(O)c2)ns1)c1ccc(F)cc1` [3-[(5-{[(2S)-2-(4-fluorophenyl)propyl]amino}-1,2,4-thiadiazol-3-yl)methyl]phenol], the “Mean AC1.4” value is recorded as “A (A=<1 uM)”.

The same experiment, now with this note: Table 3; concentration at which the compound increased enzymatic activity by 40%; calcium at pCa25.
`N#Cc1cccc(-c2nnc(NC[C@]3(c4ncccc4F)C[C@@H](F)C3)s2)c1` [3-(5-(((cis)3-fluoro-1-(3-fluoropyridin-2-yl)cyclobutyl)methylamino)-1,3,4-thiadiazol-2-yl)benzonitrile]: the “Mean AC1.4” value was “B (B=1-10 uM)”.

Take `NC(=O)c1cccc(-c2nnc(NC[C@]3(c4ncccc4F)C[C@@H](F)C3)s2)c1` [3-(5-(((cis)-3-fluoro-1-(3-fluoropyridin-2-yl)cyclobutyl)methylamino)-1,3,4-thiadiazol-2-yl)benzamide]: the “Mean AC1.4” value was “B (B=1-10 uM)”.

On to `N#Cc1cccc(-c2nnc(NC[C@]3(c4ncccc4F)C[C@H](F)C3)s2)c1` [3-(5-(((trans)3-fluoro-1-(3-fluoropyridin-2-yl)cyclobutyl)methylamino)-1,3,4-thiadiazol-2-yl)benzonitrile], for which the “Mean AC1.4” value is “B (B=1-10 uM)”.

For `NC(=O)c1cccc(-c2nnc(NC[C@]3(c4ncccc4F)C[C@H](F)C3)s2)c1` [3-(5-(((trans)-3-fluoro-1-(3-fluoropyridin-2-yl)cyclobutyl)methylamino)-1,3,4-thiadiazol-2-yl)benzamide], the “Mean AC1.4” value was “B (B=1-10 uM)”.
